The test system of this test is T1, mushroom tyrosinase.
T1 construct: gene PPO3; commercial native preparation from Merck; likely isoenzyme mixture
Briefly: absorbance at […] nm, Lineweaver–Burk plot. In kind it is biochemical. The following applies: no inhibitor, 0.2 M sodium phosphate pH 6.8, 25 °C.

In the case of `N[C@@H](Cc1ccc(O)c(O)c1)C(=O)O` [L-DOPA, L-3,4-dihydroxyphenylalanine], the Km (diphenolase activity) is reported as 0.511 mg/mL.

Regarding `N[C@@H](Cc1ccc(O)cc1)C(=O)O` [L-tyrosine], the Km (monophenolase activity) is on record as 0.534 mg/mL.

By Km is commonly meant the substrate concentration at which the rate is half of its maximum.

For the origin of these results see article PMC6826928, “A New Natural Antioxidant Biomaterial from Cinnamomum osmophloeum Kanehira Leaves Represses Melanogenesis and Protects against DNA Damage” (Antioxidants, 2019).
